Reference: US20110105554A1, “MEANS FOR TREATING MYOSIN-RELATED DISEASES” (KINARIS BIOMEDICALS GMBH, priority 2007, published 2011)
Entries after “also recorded” stand apart in the source; their conditions may differ.

Legend:
[1] = Development toxicity testing on medaka embryos; conditions: medaka, in vivo
Experimental: (§1) (a) KIN-43 in concentrations between 0.5 μM and 100 μM were incubated for 48 h with 20 medaka embryos per concentration. […] (b) Light microscopy image of embryo after 48 h in the absence of KIN-43.
(§2) We are using a library of common organic molecules and functional groups and are applying an empirical force field description of the nonbonding interactions between a ligand and the binding site in order to build up de novo compounds with spatial and electrostatic properties complementary to the allosteric binding site.

[2] = tested on: medaka embryos; test: Development toxicity testing on medaka embryos
Experimental: as §1, §2

[3] = tested on: human hepatocyte carcinoma cells (Hep G2); test: in vitro
Experimental: (§3) Cytotoxicity may be assayed by determining the cellular uptake of neutral red. Only living cells are capable of neutral red uptake via an active transport mechanism. For an exemplary workflow of a cytotoxicity assay, see FIG. 16.
(§4) FIG. 16: Cytotoxicity assay.
(§5) FIG. 22: Cytotoxic testing of KIN-compounds by neutral red uptake assays. (a) human hepatocyte carcinoma cells (Hep G2) were exposed to KIN-43 for 4 h in the in presence of 1% FBS.
as §2

[4] = in vitro; conditions: human
Experimental: as §3, §4, §5, §2

[5] = tested on: Plasmodium sporozoites; test: Plasmodium sporozoite motility (in vitro imaging); format: cell-based
From the text: FIG. 20: (a) Plasmodium sporozoites adopt motility states, shown in the photos from the left to the right, attached, waving, clockwise (CW), and counterclockwise (CCW). In the absence of inhibitors sporozoites preferably move CW and CCW at 0.97 μm/s and 1.13 μm/s.
Plasmodium sporozoites are moving at very low speed in the salivary glands of infected mosquitoes but are moving at high speed (2 μm/s) upon transmission into the vertebrate host. […] We followed single parasites using in vitro imaging approaches in combination with our bioactive compounds and discovered some intriguing features of sporozoite motility. Under normal conditions sporozoites move in circles, either counterclockwise or clockwise. Two other states of attachment and waving are less populated.

[6] = tested on: Plasmodium merozoites; test: In vitro growth assay, blood stages of malaria; format: cell-based; conditions: 25 μM
[7] = tested on: myosin-1 isoforms; test: Selectivity for myosin isoforms (Example 3), myosin-1; format: biochemical
From the text: In this context, preferred selectivity means a more than 20-fold smaller IC50 value compared to fast skeletal muscle myosin-2 and other references myosins.

[8] = biological target: T1, Dictyostelium myosin-5b (Dictyostelium discoideum, UniProt P54697); test: Basal ATPase activity, Dictyostelium myosin-5b; format: biochemical; conditions: read-out: concentration required for half-maximal inhibition of basal ATPase activity
T1 construct: comprising amino acids 1-698, 1-765, and 1-839 respectively; made in house
From the text: (§6) FIG. 18: KIN-68-inhibition of the basal ATPase activity of Dictyostelium myosin-1E and myosin-5b.

[9] = biological target: T2, Dictyostelium myosin-1E (Dictyostelium discoideum, UniProt Q03479); test: Basal ATPase activity, Dictyostelium myosin-1E; format: biochemical; conditions: read-out: concentration required for half-maximal inhibition of basal ATPase activity
T2 construct: comprising amino acids 1-698, 1-765, and 1-839 respectively; made in house
From the text: as §6

[10] = biological target: T3, Dictyostelium myosin-2 (Dictyostelium discoideum, UniProt P08799, C312Y/S249N); test: Actin-activated ATPase activity (NADH-coupled assay), Dictyostelium myosin-2; format: biochemical; conditions: 30 μM actin; read-out: IC50, ATPase activity in the presence of actin
T3 construct: comprising amino acids 1-698, 1-765, and 1-839 respectively; made in house
Experimental: Based on the structure of the myosin-2 motor domain with bound PBP, we performed molecular modeling studies to elucidate the specificity of PBP-binding to myosins from different classes. […] To test the predictions from the modeling studies, we determined actin-activated ATPase activities in the presence of 0 to 150 μM PBP with rabbit skeletal myosin-2 heavy meromyosin (HMM), myosin-5a isolated from chicken brain, and recombinant Dictyostelium myosin class-1, 2 and 5 motor-domain constructs (FIG. 9a). […] The concentrations of PBP required for half-maximal inhibition of the different myosin motors was calculated from fitting the data to hyperbolae. […] To determine the extend to which PBP impairs the coupling between the actin- and nucleotide-binding sites of myosin, we measured the ATP turn-over rates of Dictyostelium myosin-2 and myosin-5b motor domain constructs over the range from 0 to 50 μM F-actin in the absence and presence of 25 μM PBP.
Values for the rate of maximum ATP turnover (kcat), the concentration of F-actin at which half-maximal activation is achieved (Kapp), and the apparent second order rate constant for actin binding (kcat/Kapp) were estimated from a fit of the data to a hyperbolic function. kcat/Kapp is a direct measure of the coupling efficiency between actin and nucleotide binding and can be determined from the initial slope at F-actin concentrations much smaller than Kapp. […] ATP turn-over rates of Dictyostelium myosin-2 (◯) and Dictyostelium myosin-5b (▪) at increasing F-actin concentrations in the absence (filled symbols) and presence (open symbols) of 25 μM pentabromopseudilin (FIG. 9b):
Protein preparation. Rabbit fast skeletal muscle heavy meromyosin (HMM) was prepared as described by Kron and Spudich^9. Motor domain constructs of myosin-1E, myosin-2, and myosin-5b from Dictyostelium discoideum comprising amino acids 1-698, 1-765, and 1-839 respectively, were prepared as described previouslyl^10-12. Myosin-5a heavy meromyosin from chicken brain was provided by Dr. T. Scholz (Hannover Medical School, Germany) and F-actin was prepared as described by Lehrer and Kerwar^13.
Steady-state kinetics. Basal and actin-activated Mg^2+-ATPase activities were measured with the NADH-coupled assay^19 in a buffer containing 25 mM HEPES, 25 mM KCl, and 4 mM MgCl2, 0.5 mM DTT at pH 7.0 in the presence of 1 mM ATP at 25° C. PBP was added to the reaction mixture in the absence of nucleotide and incubated for 20 minutes before the reaction was started by the addition of ATP. NADH oxidation was followed using the change in absorption at 340 nm in a Beckman DU-800 spectrophotometer.

[11] = biological target: T4, Dictyostelium myosin-2 (Dictyostelium discoideum, UniProt P08799, C312Y/S249N); test: Basal ATPase activity, Dictyostelium myosin-2; format: biochemical
T4 construct: comprising amino acids 1-698, 1-765, and 1-839 respectively; made in house
T4 sequence (P08799 1-765 S249N/C312Y): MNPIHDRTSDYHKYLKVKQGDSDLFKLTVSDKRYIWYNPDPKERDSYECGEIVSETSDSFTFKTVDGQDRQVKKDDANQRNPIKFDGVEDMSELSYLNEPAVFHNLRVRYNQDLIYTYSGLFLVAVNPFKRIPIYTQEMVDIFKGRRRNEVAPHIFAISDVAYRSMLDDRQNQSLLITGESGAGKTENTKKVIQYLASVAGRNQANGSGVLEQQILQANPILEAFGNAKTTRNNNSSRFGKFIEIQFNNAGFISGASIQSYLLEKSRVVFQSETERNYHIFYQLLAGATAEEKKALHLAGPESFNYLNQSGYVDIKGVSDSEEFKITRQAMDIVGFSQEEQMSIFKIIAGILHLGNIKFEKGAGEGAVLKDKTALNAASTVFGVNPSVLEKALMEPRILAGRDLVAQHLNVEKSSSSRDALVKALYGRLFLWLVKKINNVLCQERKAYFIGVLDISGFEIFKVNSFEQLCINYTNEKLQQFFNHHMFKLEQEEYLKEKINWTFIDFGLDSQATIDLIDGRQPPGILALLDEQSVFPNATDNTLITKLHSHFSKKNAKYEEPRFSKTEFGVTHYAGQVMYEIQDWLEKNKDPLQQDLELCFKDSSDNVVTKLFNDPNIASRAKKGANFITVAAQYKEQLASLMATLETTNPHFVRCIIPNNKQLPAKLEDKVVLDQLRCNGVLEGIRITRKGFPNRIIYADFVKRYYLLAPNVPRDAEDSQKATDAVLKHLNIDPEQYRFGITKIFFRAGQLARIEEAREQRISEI
Experimental: (a) Concentrations of […] in the range from 1 to 50 μM activate the basal ATPase activity of Dictyostelium myosin-2 with an apparent half maximum activation constant AC50 of 18 μM. At concentrations of KIN-74>50 μM the basal ATPase activity of Dictyostelium myosin-2 is inhibited with IC50=90 μM.
Compounds KIN-74, KIN-77 are activators of myosin-2 function. KIN-74 activates the ATPase activity of Dictyostelium myosin-2 in the absence of actin. ATPase activity is uncoupled from motor activity in this situation. The apparent half-maximum activation constant AC50 corresponds to 18 μM. Uncouplers have potential applications in inhibiting the overcontraction and overextension of cardiac muscles without being accompanied with a cardioinhibitory action. Therefore, compounds derived from KIN-74 have potential applications in the treatment of acute myocardial infarction helping to prevent the necrosis of cardiac muscles.

T1 sequence (P54697 1-839): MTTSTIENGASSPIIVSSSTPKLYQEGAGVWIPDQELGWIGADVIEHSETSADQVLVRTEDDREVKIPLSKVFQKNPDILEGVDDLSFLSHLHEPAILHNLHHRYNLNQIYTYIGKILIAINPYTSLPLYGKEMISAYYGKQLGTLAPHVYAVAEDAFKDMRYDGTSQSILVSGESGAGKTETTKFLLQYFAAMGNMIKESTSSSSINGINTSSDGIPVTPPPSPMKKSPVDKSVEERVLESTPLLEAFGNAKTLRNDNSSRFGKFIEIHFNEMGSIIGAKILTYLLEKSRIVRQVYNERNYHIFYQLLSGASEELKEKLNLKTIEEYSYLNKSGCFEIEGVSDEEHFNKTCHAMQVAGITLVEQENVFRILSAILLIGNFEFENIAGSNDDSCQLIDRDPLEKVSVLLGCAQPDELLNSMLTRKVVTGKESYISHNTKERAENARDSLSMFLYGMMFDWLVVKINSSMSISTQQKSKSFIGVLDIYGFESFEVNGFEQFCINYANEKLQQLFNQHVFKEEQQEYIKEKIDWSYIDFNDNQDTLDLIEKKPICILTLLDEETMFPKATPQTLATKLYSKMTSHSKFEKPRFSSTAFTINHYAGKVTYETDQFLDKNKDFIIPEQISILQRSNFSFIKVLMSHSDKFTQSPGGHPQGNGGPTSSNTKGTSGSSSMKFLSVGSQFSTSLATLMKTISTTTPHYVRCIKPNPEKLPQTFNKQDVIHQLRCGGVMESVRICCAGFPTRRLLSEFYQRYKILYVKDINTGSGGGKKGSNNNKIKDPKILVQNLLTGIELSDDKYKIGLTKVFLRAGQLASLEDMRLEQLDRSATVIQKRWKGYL
T2 sequence (Q03479 1-698): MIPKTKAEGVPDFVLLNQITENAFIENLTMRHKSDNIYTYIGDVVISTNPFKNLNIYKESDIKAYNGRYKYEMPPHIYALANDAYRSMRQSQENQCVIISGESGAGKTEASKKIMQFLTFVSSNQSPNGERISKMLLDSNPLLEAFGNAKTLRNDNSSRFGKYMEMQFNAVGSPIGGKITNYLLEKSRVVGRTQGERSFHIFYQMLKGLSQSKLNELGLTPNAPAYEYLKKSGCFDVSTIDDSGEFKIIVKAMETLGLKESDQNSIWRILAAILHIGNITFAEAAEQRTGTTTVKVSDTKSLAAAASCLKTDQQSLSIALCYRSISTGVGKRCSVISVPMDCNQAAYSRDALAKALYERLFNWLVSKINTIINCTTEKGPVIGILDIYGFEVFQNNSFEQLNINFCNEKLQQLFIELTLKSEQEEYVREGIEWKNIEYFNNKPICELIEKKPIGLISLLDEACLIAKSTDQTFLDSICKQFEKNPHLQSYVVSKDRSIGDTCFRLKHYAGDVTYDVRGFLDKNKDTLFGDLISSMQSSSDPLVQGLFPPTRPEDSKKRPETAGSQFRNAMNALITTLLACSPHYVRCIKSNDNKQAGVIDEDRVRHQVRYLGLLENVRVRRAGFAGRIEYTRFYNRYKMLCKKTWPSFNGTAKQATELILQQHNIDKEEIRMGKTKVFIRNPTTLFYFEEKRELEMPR

In the case of Oc1cc(F)c(F)c2c1[nH]c1ccc(F)cc12 [KIN-93], the LC50 at 48 h [1] is reported as > 50 µM, the “lethal effect on medaka embryos” value ([2]; below 50.0 μM) is reported as “no lethal effect” and the embryonic development ([2]; in vivo) is reported as “not impaired”. For the same molecule, the “neutral red uptake experiments, defects” value [3] was “do not reveal any defects”, the CC50 at 4 h [4] was > 50 µM and the “general cytotoxicity for erythrocytes or for Plasmodium sporozoites” value [5] was “No general cytotoxicity”. The “gliding velocity compared with control parasites” value ([5]; 10 μM) was “only half as fast”, the “motility states of the sporozoite population” value ([5]; 10 μM) was “switched the population to attached and waving states; also recorded: strongly reduced” and the “velocity of clockwise (CW) motility” value ([5]; 0.97 μm/s without inhibitor) was 0.58 μm/s. The “velocity of counterclockwise (CCW) motility” value ([5]; 1.13 μm/s without inhibitor) was 0.59 μm/s and the “effect on the blood stages of malaria” value [6] was “reducing the number of Plasmodium merozoites”.
For Oc1c(Cl)cc(Cl)cc1-c1[nH]c(Cl)c(Cl)c1Cl [KIN-68, pentachloropseudilin], the “preferred selectivity: fold smaller IC50 compared to fast skeletal muscle myosin-2 and other reference myosins” value [7] was “more than 20 fold”, the IC50 [8] was 105 µM and the IC50 [9] was 55.8 µM.
Work on Oc1c(F)cc(F)cc1-c1[nH]c(Br)c(Br)c1Br [KIN-74, 2,3,4-tribromo-5 (1′ hydroxy, 2′,4′-difluorophenyl)pyrrole] yielded an IC50 [10] of 88.8 µM, an AC50 ([11]; absence of actin, 1 to 50 μM, read-out: apparent half maximum activation constant AC50, basal ATPase activity) of 18 µM and an IC50 ([11]; at concentrations >50 μM) of 90 µM.
